From patent publication US20090270363A1, “2-Aryl- and 2-Heteroarylthiazolyl Compounds, Methods for Their Preparation and Use Thereof” (Wyeth, priority 2008, published 2009)

Legend:
[1] = test system: Xenografts of a Human Breast Carcinoma Cell Line (MDA-MB-361); assay: Tumor xenograft study versus Herceptin (Table 2); assay type: in vivo; details: 40 mg/kg/dose PO, days 1 through 20
Method: (§1) Selected fused bicyclic 2-aryl- or 2-heteroarylthiazolyl compounds of formula I were tested for their activity in a securin parental cell line (HCT116 FB) and a securin knockout (KO) cell line. […] The in-vivo activity of selected fused bicyclic 2-aryl- or 2-heteroarylthiazolyl compounds of formula I was studied in cells growing as xenografts in athymic (nude) mice. The effect of Examples 164, 166 and 167 was studied in xenografts of a human breast carcinoma cell line (MDA-MB-361).
(§2) In-vivo Activity in Tumor Xenografts. […] The fused bicyclic 2-arylthiazolyl compounds were formulated using 0.5% Methocel™ (methylcellulose) and 0.4% Tween 80™ (polysorbate-80 and oleic acid) and administered daily orally (PO), by gavage or by syringe. Tumor mass [(length×width^2)/2] was determined every 7 days. Inhibition of tumor growth was calculated relative to conventional (vehicle treated) controls.

[2] = test system: HCT116 cells (Securin+/+, securin parental, HCT116 FB); assay: Growth inhibition (sulforhodamine B, 5 days) of securin parental cells; assay type: cell-based; details: Homo sapiens, HCT-116, 120 h, SRB
Method: (§3) IC50 analysis was performed for selected fused bicyclic 2-aryl or 2-heteroarylthiazolyl compounds that were tested on HCT116 cells and Securin “knock out” cell lines.
(§4) Cell Culture—HCT116 and securin “knock out” cells. HCT116 and securin “knock out” cells (D8 and F3) were grown in RPMI+5% fetal bovine serum and gentamycin. They were maintained in a humidified 37° C. incubator with 5% CO2. Since the securin “knock out” cells have active chromosomal instability, cells were used at a low passage number of 2-13 passages. At or before passage 13 a new vial of cells was thawed and used for the screen. Cell seeding—HCT116 cells and securin “knock out” cells were trypsinized and suspended in RPMI+5% FBS at a density of 27,000 cells/mL. HCT116 and securin “knock out” cells were seeded separately in wells of a 96-well plate (Falcon Cat # 35-3872) at a cell density of 4000 cells per well. Cells were seeded in 150 μL of RPMI media containing 5% FBS and gentamycin. Cell seeding was performed under aseptic conditions. Cells were allowed to attach and grow overnight in a humidified 37° C. incubator.
(§5) Compound Dilution and Dispensation. A series of stock solutions, 10 mg/mL of fused bicyclic 2-aryl- or 2-heteroarylthiazolyl compounds to be tested, were brought to room temperature. The compounds were diluted 1:50 in RPMI+5% FBS (Highest concentration 200 μg/mL). The compounds were then serially diluted 1:3 across a deep-well titration plate resulting in final concentrations in the plate of 200, 66.7, 22.2, 7.4, 2.4, 0.8, 0.27, 0.091, 0.03, 0.01, and 0.0034 μg/mL with one well left without a compound. 50 μL of this dilution series was added to the 150 μL of cells to result in a final concentration of compound in with the cells of 50, 16.6, 5.5, 1.8, 0.6, 0.2, 0.068, 0.023, 0.0076, 0.0025, and 0.00084 μg/mL. The dilution and addition of compounds to the plates is performed using a Multimek 96 Robot (Beckman Coulter).
(§6) Incubation and analysis. After dosing, the cells in the 96 well plates were returned to the humidified 37° C. incubator. The compounds remained on the cells for 5 days. After 5 days, the cells were fixed to the plates with the addition of 50 μL of 50% (vol/vol) Trichloro Acetic Acid ([…]). The cells were fixed at 4° C. for 1 hour. The plates were washed 5 times in distilled water and allowed to dry. The cells were stained with 0.4% sulforhodamine B (Sigma) in 1% acetic acid. The cells were stained for 15 minutes at room temperature. The plates were then washed 3 times in 1% acetic acid. The plates were dried and the dye was solubilized in 10 mM Tris at pH 8.0. The plates were read on the Absorbence 560 setting on a Victor^2 V Model 1420 Multilabel HTS counter (Perkin Elmer).
(§7) Analysis of Results—IC50 data. Absorbence data was read off of the Victor and was converted to a percentage of the control (untreated) values. IC50 values were graphed and the point at which a 50% inhibition of the control level was determined. […] If the model was not able to determine an IC50, the IC50 was assigned to the lowest concentration that gives a 50% or greater decrease in absorbence compared to control levels. If the calculated IC50 value for a cell line exceeds the top concentration for the assay (typically 50 μg/mL), the assay was scored as >50.
(§8) Selectivity Ratio. The Selectivity Ratio is the ratio of IC50s between the parent cell line and the knock out cell line and is always a positive number and is typically an integer.

[3] = test system: securin "knock out" cells D8 (Securin-/-); assay: Growth inhibition (sulforhodamine B, 5 days) of securin knock out cells D8; assay type: cell-based; details: for IC50: 120 h, securin knock out D8 cells, 5 days, SRB; for Selectivity Ratio D8: IC50 HCT116 / IC50 securin KO D8
Method: as §3, §4, §5, §6, §7, §8

[4] = test system: securin "knock out" cells F3 (Securin-/-); assay: Growth inhibition (sulforhodamine B, 5 days) of securin knock out cells F3; assay type: cell-based; details: for IC50: 120 h, securin knock out F3 cells, 5 days, SRB; for Selectivity Ratio F3: IC50 HCT116 / IC50 securin KO F3
Method: as §3, §4, §5, §6, §7, §8

[5] = test system: Xenografts of a Human Breast Carcinoma Cell Line (MDA-MB-361); assay: Tumor xenograft study versus Vincristine (Table 3); assay type: in vivo
Method: as §1, §2
The effectiveness of Examples 164, 166 and 167 versus Vincristine at controlling tumor growth was studied and the results are summarized in Table 3 and FIG. 2.

[6] = 100 mg/kg/dose PO, BID, days 2 through 21
[7] = 100 mg/kg/dose PO, BID, days 2 through 21, BID vehicle group listed
[8] = 150 mg/kg/dose PO, days 2 through 21
[9] = 0.8 mg/kg/dose IP, days 2, 5 and 10

Row | SMILES | IC50 [2] [µM] | IC50 [3] [µM] | Selectivity Ratio D8 [3] | IC50 [4] [µM] | Selectivity Ratio F3 [4] | other results
1 | CCOc1cc2ncc(C#N)c(Nc3ccc(F)c(Cl)c3)c2cc1NC(=O)/C=C/CN(C)C [EKB-569] | – | – | – | – | – | % T/C Day 7 [1]: 66%; % T/C Day 14 [1]: 80%; % T/C Day 21 [1]: 78%; Relative Tumor Growth Day 7 [1]: 1.28; Relative Tumor Growth Day 14 [1]: 2.57; Relative Tumor Growth Day 21 [1]: 8.24; S/T = # of Survivors/# of Treated on Day +21 [1]: 10/10
2 | CN(C)c1ccc(-c2nc3c(s2)C(O)CC3)cc1 (stereo not drawn) [Example 5, 2-[4-(dimethylamino)phenyl]-5,6-dihydro-4H-cyclopenta[d][1,3]thiazol-6-ol] | 54.3 | 1.3 | 43 | 1.8 | 30 | –
3 | CN(C)c1ccc(-c2nc3c(s2)[C@H](O)CC3)cc1 [Example 6, (6R)-2-[4-(dimethylamino)phenyl]-5,6-dihydro-4H-cyclopenta[d][1,3]thiazol-6-ol] | 43.4 | 0.46 | 95 | 0.84 | 52 | –
4 | CN(C)c1cc(F)c(-c2nc3c(s2)C(O)CCC3)c(F)c1 (stereo not drawn) [Example 25, 2-[4-(dimethylamino)-2,6-difluorophenyl]-4,5,6,7-tetrahydro-1,3-benzothiazol-7-ol] | ≥ 161 | 2.6 | 62 | 6.7 | 24 | –
5 | Cc1cc(N(C)C)ccc1-c1nc2c(s1)C(O)CCC2 (stereo not drawn) [Example 45, 2-[4-(dimethylamino)-2-methylphenyl]-4,5,6,7-tetrahydro-1,3-benzothiazol-7-ol] | 133 | 0.54 | 245 | 1.1 | 121 | selectivity ratios (IC50 HCT116 FB/IC50 securin KO) [3]: high selectivity ratios
6 | CCc1cc(N(C)C)ccc1-c1nc2c(s1)C(O)CCC2 (stereo not drawn) [Example 47, 2-[4-(dimethylamino)-2-ethylphenyl]-4,5,6,7-tetrahydro-1,3-benzothiazol-7-ol] | 76.4 | 0.43 | 179 | 3 | 26 | –
7 | COC(=O)c1cc(N(C)C)ccc1-c1nc2c(s1)C(O)CCC2 (stereo not drawn) [Example 55, methyl 5-(dimethylamino)-2-(7-hydroxy-4,5,6,7-tetrahydro-1,3-benzothiazol-2-yl)benzoate] | 105 | 0.65 | 160 | 1.2 | 90 | –
8 | CN(C)c1ccc(-c2nc3c(s2)C(O)CCC3)c(CO)c1 (stereo not drawn) [Example 60, 2-[4-(dimethylamino)-2-(hydroxymethyl)phenyl]-4,5,6,7-tetrahydro-1,3-benzothiazol-7-ol] | 97.5 | 0.091 | 1076 | 0.12 | 821 | –
9 | CN(C)c1ccc(-c2nc3c(s2)C(O)CCC3)c(C=O)c1 (stereo not drawn) [Example 67] | 31 | 0.059 | 525 | 0.15 | 206 | –
10 | CN(C)c1ccc(-c2nc3c(s2)C(O)CCC3)c(C(C)(C)O)c1 (stereo not drawn) [Example 72, 2-[4-(dimethylamino)-2-(1-hydroxy-1-methylethyl)phenyl]-4,5,6,7-tetrahydro-1,3-benzothiazol-7-ol] | 54 | 1 | 52 | 2 | 27 | –
11 | CC(O)c1cc(N(C)C)ccc1-c1nc2c(s1)C(O)CCC2 (stereo not drawn) [Example 73, 2-[4-(dimethylamino)-2-(1-hydroxyethyl)phenyl]-4,5,6,7-tetrahydro-1,3-benzothiazol-7-ol] | 99.5 | 0.44 | 226 | 0.79 | 126 | –
12 | CC(=O)c1cc(N(C)C)ccc1-c1nc2c(s1)C(O)CCC2 (stereo not drawn) [Example 74, 1-[5-(dimethylamino)-2-(7-hydroxy-4,5,6,7-tetrahydro-1,3-benzothiazol-2-yl)phenyl]ethanone] | 100 | 0.15 | 650 | 0.18 | 558 | –
13 | CC(=O)c1c(-c2nc3c(s2)C(O)CCC3)ccc(N(C)C)c1Br (stereo not drawn) [Example 81, 1-[2-bromo-3-(dimethylamino)-6-(7-hydroxy-4,5,6,7-tetrahydro-1,3-benzothiazol-2-yl)phenyl]ethanone] | 58.9 | 0.13 | 459 | 0.35 | 170 | –
14 | N#Cc1cc(N2CCCC2)ccc1-c1nc2c(s1)C(O)CCC2 (stereo not drawn) [Example 85, 2-(7-hydroxy-4,5,6,7-tetrahydro-1,3-benzothiazol-2-yl)-5-pyrrolidin-1-ylbenzonitrile] | 48.4 | 0.19 | 253 | 0.31 | 159 | –
15 | CCOc1cc2ncc(C#N)c(Nc3ccc(OCc4ccccn4)c(Cl)c3)c2cc1NC(=O)/C=C/CN(C)C [HKI-272, reference compound] | – | – | – | – | – | % T/C Day 7 [1]: 62%; % T/C Day 14 [1]: 89%; % T/C Day 21 [1]: 76%; Relative Tumor Growth Day 7 [1]: 1.19; Relative Tumor Growth Day 14 [1]: 2.86; Relative Tumor Growth Day 21 [1]: 8.03; S/T = # of Survivors/# of Treated on Day +21 [1]: 10/10
16 | COc1cc(Nc2c(C#N)cnc3cc(OCCCN4CCN(C)CC4)c(OC)cc23)c(Cl)cc1Cl [SKI-606 20] | – | – | – | – | – | Relative Tumor Growth Day 8 [5, 6]: 1.97; Relative Tumor Growth Day 15 [5, 6]: 2.44; Relative Tumor Growth Day 22 [5, 6]: 3.91; Relative Tumor Growth Day 29 [5, 6]: 5.73; Relative Tumor Growth Day 36 [5, 6]: 10.26; S/T = # of Survivors/# of Treated on Day +36 [5, 6]: 8/10; % T/C Day 8 [5, 7]: 52%; % T/C Day 15 [5, 7]: 27%; % T/C Day 22 [5, 7]: 18%; % T/C Day 8 [5, 8]: 40%; % T/C Day 15 [5, 8]: 22%; % T/C Day 22 [5, 8]: 16%; Relative Tumor Growth Day 8 [5, 8]: 2.09; Relative Tumor Growth Day 15 [5, 8]: 2.77; Relative Tumor Growth Day 22 [5, 8]: 3.62; Relative Tumor Growth Day 29 [5, 8]: 7.22; Relative Tumor Growth Day 36 [5, 8]: 10.19; S/T = # of Survivors/# of Treated on Day +36 [5, 8]: 10/10
17 | CC[C@]1(O)C[C@H]2CN(CCc3c([nH]c4ccccc34)[C@@](C(=O)OC)(c3cc4c(cc3OC)N(C=O)[C@H]3[C@@](O)(C(=O)OC)[C@H](OC(C)=O)[C@]5(CC)C=CCN6CC[C@]43[C@@H]65)C2)C1 [Vincristine, reference compound] | – | – | – | – | – | % T/C Day 8 [5, 9]: 33%; % T/C Day 15 [5, 9]: 23%; % T/C Day 22 [5, 9]: 30%; Relative Tumor Growth Day 8 [5, 9]: 1.75; Relative Tumor Growth Day 15 [5, 9]: 2.84; Relative Tumor Growth Day 22 [5, 9]: 6.71; Relative Tumor Growth Day 29 [5, 9]: 11.47
